According to paper PMC9871035, “Discovery of structural and functional transition sites for membrane-penetrating activity of sheep myeloid antimicrobial peptide-18” (Scientific Reports, 2023):
Where no end group is shown, it is not given here.

Legend:
S. aureus (KCTC 1621) [1] = assay: Confocal laser scanning microscopy of FITC-labeled peptides; assay type: cell-based, Staphylococcus aureus; conditions: FITC-labeled peptide 10 μM, 37 ℃, 30 min
Protocol: (§1) E. coli (KCTC 1682) and S. aureus (KCTC 1621) were grown at mid-log phase and washed three times with PBS (pH 7.4). The bacteria were diluted at 10^6 CFU/ml and incubated with FITC-labeled peptides (10 μM) at 37 ℃ for 30 min. After incubation, this solution was washed thrice with PBS and was then transferred to a confocal dish. […] Fluorescent images were obtained with a 488 nm bandpass filter for FITC excitation.

S. aureus (KCTC 1621) [2] = assay: SYTOX Green uptake assay; assay type: cell-based, Staphylococcus aureus; conditions: 2 × MIC, SYTOX 0.1 μM, PBS pH 7.4
Protocol: The membrane permeabilization activity of the peptides was determined by using the SYTOX Green uptake assay, as described previously[33]. S. aureus (KCTC 1621) grown at 37 ℃ until the mid-log phase (OD600 = 0.4). The cell pellet was washed using PBS (pH 7.4) and was diluted to an OD600 = 0.05 in PBS (pH 7.4); SYTOX was added to the final concentration of 0.1 μM and this solution was pre-incubated in the dark at 4 ℃ for 16 h. Fluorescence was monitored using a F-4500 FL spectrophotometer (Hitachi, Japan) and excitation and emission wavelengths of 480 nm and 520 nm, respectively.

[3] = Estimation of helicity from CD; assay type: physicochemical; conditions: peptide 100 μM, from [θ]mr at 222 nm; for % α-helix, H2O: H2O (10 mM sodium phosphate, pH 7.0)
Protocol: CD spectra were measured on a J-810 spectropolarimeter (JASCO) using a 1.0 mm path-length cell. […] Three scans were conducted from 190 to 260 nm and the data are expressed in terms of mean residue molar ellipticity [θ]mr. The mean residue ellipticity, [θ]mr (deg cm^2 dmol^-1), was calculated according to the equation [θ]mr = (100θ)/(clN), where θ is the measured ellipticity (mdeg), c is the sample concentration (mM), l is the path length (cm), and N is the number of amino acids. Percent α-helicity was calculated using the equation ([θ]mr222nm—3000)/(− 39,000 × 100)[29]. Reference values for [θ]mr222nm = 0 and 36,000 (deg cm^2 dmol^−1) were used for 0% and 100% helicity, respectively[30].

[4] = system: Gram-negative and Gram-positive bacteria; assay: MIC over the panel of six strains (GM, range); assay type: cell-based; conditions: six strains of Table 1; average value ± SD
Protocol: The antimicrobial activity of the peptides, i.e., their MIC values, were determined against Escherichia coli (KCTC 1682), Salmonella typhimurium (KCTC 1926), Pseudomonas aeruginosa (KCTC 1637), Bacillus subtilis (KCTC 3068), Staphylococcus epidermidis (KCTC 1917), Staphylococcus aureus (KCTC 1621), and Methicillin-resistant Staphylococcus aureus (CCARM 3089, 3090 and 3095) using broth microdilution in a 96-well plate according to existing methodologies[23]. Bacteria were grown at 37 ℃ on a spinner culture until a mid-log phase diluted to 2 × 10^6 CFU/ml in 1% peptone. The bacterial suspension was added to 100 μl of the sample solution (i.e., serial twofold dilution in 1% peptone). […] All experiments were performed in triplicate and included growth and sterility controls.

[5] = system: S. aureus (KCTC 1621) cytoplasmic membrane; assay: Membrane depolarization assay (diSC3-5); assay type: cell-based, Staphylococcus aureus; conditions: 2 × MIC, monitored over 1400 s
Protocol: The cytoplasmic membrane depolarization activity of the peptides was measured using the membrane potential sensitive dye diSC3-5, as previously described[31],[32]. Briefly, S. aureus (KCTC 1621) was grown at 37 ℃ with agitation until the mid-log phase (OD600 = 0.3) and was harvested by centrifugation. Cells are washed twice with a buffer solution (i.e., 20 mM Glucose, 5 mM HEPES, 100 mM KCl; pH 7.4) and were resuspended to an OD600 = 0.05 in the buffer. Membrane depolarization was monitored by recording changes in the intensity of fluorescence emission of diSC3-5 after peptide concentration.

E. coli (KCTC 1682) = assay: Confocal laser scanning microscopy of FITC-labeled peptides; assay type: cell-based, Escherichia coli; conditions: FITC-labeled peptide 10 μM, 37 ℃, 30 min
Protocol: as §1

Substance	Localization of peptide in S. aureus (S. aureus (KCTC 1621) [1])	SYTOX Green uptake (fluorescence) (S. aureus (KCTC 1621) [2])	% α-helix, 50% TFE [3] [%]	% α-helix, H2O [3] [%]	GM (geometric mean of MIC values from selected bacterial strains) [4]	Membrane depolarization of S. aureus (diSC3-5 fluorescence) [5]	Localization of peptide in E. coli (E. coli (KCTC 1682))
RALRRLARKIAHAVKKYG-NH2 [G2,7,13A]	likely bound to the cell membrane	induced the maximal fluorescence	44.4	5.7	4.3(± 2.9) μM	induced a significant membrane depolarization	likely bound to the cell membrane
RGLRRLARKIAHAVKKYG-NH2 [G7,13A]		induced the maximal fluorescence	33.9	7.6	4.5(± 2.9) μM	induced a significant membrane depolarization	
RGLRRLG-NH2 [R1-G7]			6.9	5.6	> 64 µM		
